Test results: patent US11827612B2, “Hydroxamic acid derivative, method for producing same and use thereof” (INSTITUTE OF MEDICINAL BIOTECHNOLOGY, CHINESE ACADEMY OF …, priority 2019, dated 2023)
≈ marks a conversion by molar mass, not a printed value.

Legend:
E. coli ATCC 25922 = experiment: Antibiotic susceptibility test, broth microdilution (CLSI), MIC; assay type: cell-based; details: Escherichia coli, ATCC25922, 35° C., 18 h, read-out: Minimal inhibitory concentration (MIC)
Description: (§1) An antibiotic susceptibility test was carried out using the broth microdilution guidelines as stipulated by the Clinical and Laboratory Standards Institute (CLSI). Test organisms were grown in Mueller-Hinton (MH) or Brain Heart Infusion (BHI) broth. Solutions of compounds to be tested were each diluted in 96-well plates (50 μl per well) to various prescribed concentrations with the MH or BHI broth. Final concentrations of the solutions in each well were as follows: 128, 64, 32, 16, 8, 4, 2, 1, 0.5, 0.25, 0.125, 0.06, and 0.03 μg/ml. The culture mediums in the 96-well plates were inoculated with 5×10^5 CFU/ml of the test organisms, and then the organisms were cultured at 35° C. for 18 h.

[1] = system: Enterobacter aerogenes ATCC 13048; experiment: as above; assay type: cell-based; details: Klebsiella aerogenes, ATCC13048, 35° C., 18 h, read-out: Minimal inhibitory concentration (MIC)
Description: as §1

[2] = system: Enterobacter cloacae ATCC 43560; experiment: as above; assay type: cell-based; details: ATCC43560, 35° C., 18 h, read-out: Minimal inhibitory concentration (MIC)
Description: as §1

[3] = system: Klebsiella pneumoniae ATCC 700603; experiment: as above; assay type: cell-based; details: ATCC700603, 35° C., 18 h, read-out: Minimal inhibitory concentration (MIC)
Description: as §1

[4] = system: NDM-1-producing Klebsiella pneumoniae 2146; experiment: as above; assay type: cell-based; details: 35° C., 18 h, read-out: Minimal inhibitory concentration (MIC)
Description: as §1

[5] = system: Pseudomonas aeruginosa ATCC 27853; experiment: as above; assay type: cell-based; details: ATCC27853, 35° C., 18 h, read-out: Minimal inhibitory concentration (MIC)
Description: as §1

[6] = Experiments of toxicity in mice, tail vein injection; assay type: in vivo; details: both sexes, ICR, mouse, in vivo
Description: (§2) ICR mice of either sex weighing between 18-22 g were randomized into groups of 3 mice per group. […] The number of mice that died and the time of death were recorded. […] Tails were removed from the mice that were not dead from the injection and from the normal mice that were not given any of the compounds, and were then fixed in paraformaldehyde. Tail vessels were observed by HE staining to determine whether or not a lesion existed.

ICR mice = experiment: as above; assay type: in vivo; details: for Toxicity/yes or no: ICR mice, tail vein injection; for Mortality rate / Number of deaths / Time of death: both, ICR, mouse, in vivo
Description: as §2

Row | Structure (SMILES) | MIC (E. coli ATCC 25922) [µg/mL] | MIC [1] [µg/mL] | MIC [2] [µg/mL] | MIC [3] [µg/mL] | MIC [4] [µg/mL] | MIC [5] [µg/mL] | MTD [6] [mg/kg] | Toxicity/yes or no (ICR mice; dose 100 mg/kg) | Toxicity/yes or no (ICR mice; dose 200 mg/kg) | Toxicity/yes or no (ICR mice; dose 300 mg/kg) | Mortality rate (ICR mice; 100 mg/kg) [%] | Number of deaths (ICR mice; 100 mg/kg) | Mortality rate (ICR mice; 200 mg/kg) [%] | Number of deaths (ICR mice; 200 mg/kg) | Time of death (ICR mice; 200 mg/kg) [min] | Mortality rate (ICR mice; 300 mg/kg) [%] | Number of deaths (ICR mice; 300 mg/kg) | Time of death (ICR mice; 300 mg/kg) [min]
1 | CO[C@H]1CCC[C@@H]1C#CC#Cc1ccc(C(=O)N[C@H](C(=O)NO)C(C)(C)N)cc1 [I-1, N—((S)-3-amino-1-(hydroxyamino)-3-methyl-1-oxobutan-2-yl)-4-(((1R,2S)-2-methoxycyclopentyl)butan-1,3-diyne-1-yl)benzamide] | 0.125 (≈ 0.314 µM) | 1 (≈ 2.52 µM) | 1 (≈ 2.52 µM) | 2 (≈ 5.03 µM) | 2 (≈ 5.03 µM) | 0.5 (≈ 1.26 µM) | > 100 | no | yes | yes | 0 | 0 | 66 | 2 | 10 to 20 | 100 | 1 | 1
2 | CC(C)(N)[C@H](NC(=O)N1CCN(C#CC#Cc2ccc([N+](=O)[O-])cc2)CC1)C(=O)NO [I-2, (S)—N-(3-amino-1-(hydroxyamino)-3-methyl-1-oxobutan-2-yl)-4-((4-nitrophenyl)butan-1,3-diyne-1-yl)-piperazin-1-carboxamide] | 0.125 (≈ 0.292 µM) | 2 (≈ 4.67 µM) | 0.5 (≈ 1.17 µM) | 2 (≈ 4.67 µM) | 2 (≈ 4.67 µM) | 0.25 (≈ 0.584 µM) | > 100 | no | yes | yes | 0 | 0 | 66 | 2 | 10 to 15 | 100 | 1 | 0.5 to 1
3 | CC(C)(N)[C@H](NC(=O)c1ccc(C#CC#Cc2ccc(CN3CCCCC3)cc2)cc1O)C(=O)NO [I-3, (S)—N-(3-amino-1-(hydroxyamino)-3-methyl-1-oxobutan-2-yl)-2-hydroxy-4-((4-(piperidin-1-ylmethyl)phenyl)butan-1,3-diyne-1-yl)benzamide] | 0.125 (≈ 0.256 µM) | 2 (≈ 4.09 µM) | 1 (≈ 2.05 µM) | 4 (≈ 8.19 µM) | 2 (≈ 4.09 µM) | 0.5 (≈ 1.02 µM) | > 100 | no | yes | yes | 0 | 0 | 66 | 2 | 10 to 20 | 100 | 1 | 1
4 | C[C@H]1COc2c(N3CCN(C)CC3)c(F)cc3c(=O)c(C(=O)O)cn1c23 [Levofloxacin, levofloxacin, reference compound] | ≤ 0.25 | ≤ 0.25 | ≤ 0.25 | 0.5 (≈ 1.38 µM) | > 64 | 1 (≈ 2.77 µM) |  |  |  |  |  |  |  |  |  |  |  | 
